Assay results reported in patent publication US4198405A, “Prostaglandine derivatives” (priority 1978, dated 1980).
Entries after “also recorded” stand apart in the source; their conditions may differ.

Tests used:
rats (uterus) = test: Hysterotrimus and cardiac activity by intravenous injection to rats
estrogen receptor = test: Competitive receptor assay with 3H-estradiol in rabbit uterus; type: binding; settings: for binding to the estrogen receptor: in accordance with the method of Example 1
Experimental: Binding function of estradiol and the PGFE to each uterus of rabbit were measured by the competitive receptor assay. Estradiol labelled by tritium (^3 H) was incubated with uterus of rabbit to bind it and then, estradiol or the PGFE was added to the system to measure the amount of free ^3 H-estradiol which was replaced by the added estradiol or the PGFE.

ICR-JCL pregnant mice [1] = test: Side-effect test: tachycardia, respirogram and electrocardiogram by biophysiograph; type: in vivo; settings: for tachycardia, respirogram and electrocardiogram compared with control: intravenous; for abnormal condition in tachycardia, respirogram and electrocardiogram: mice in pregnancy, before and after administration
Experimental: The tachycardia, respirogram and electrocardiogram of mice in pregnancy before and after the administration of PGF2 α, PGFE, PGFE-4AC and PGFE-3AC are tested by a biophysiograph 180-4(4ch) (manufactured by San-ei Sokuki K.K.).
(§1) Acute toxicity (LD50) and abnormal tachycardia, respirogram and electrocardiogram by a biophysiograph were tested.
Electrocardiogram was measured by a biophysiograph 180-4 (4 ch) (manufactured by San-ei Sokuki K.K.) for ICR-JCL pregnant mice (6th day) at 3 minutes after the administration of each sample.
In the test, 0.2 ml of 50% ethanol-saline solution was intravenously injected to the mice at a dose of 30γ per mouse. As the reference, the PGF2 α was also used as the sample (a dose of 15γ per mouse).
The results of the measurements are shown in FIGS. 2 to 5 wherein mV is given on ordinate and time (second) is given on abscissas and the chart speed was 250 mm/sec.

ICR-JCL pregnant mice [2] = test: Abortion test, intravenous injection once a day during 4 days (Table 1); type: in vivo; settings: i.v. once a day
Experimental: The abortion was studied with ICR-JCL pregnant mice by the continuous administration of the drug during 4 days and the side-effect in the administration was also examined. After 0.2 ml of 50% ethanol-saline solution containing the PGFE at dose 10γ and 30γ/mouse or PGF2 α at dose 15γ/mouse(equimole of PGFE 30γ) was intravenously injected to the mice once a day during 4 days, their breedings were continued to confirm the abortion of the group administrated with the drugs until the partus of the control group administrated with only ethanol saline solution.

[3] = tested on: ICR-JCL mice of the sixth day of pregnancy; test: Test of abortion by subcutaneous injection, 4 days (Table 2); type: in vivo; settings: s.c. once a day
Experimental: (§2) The continuous administrations were applied to ICR-JCL mice of the sixth day of pregnancy (5 mice as one group) to examine the efficiency of the abortion obtained by the drugs of this invention in comparison with that of PGF2 α. After 0.2 ml of 5% ethanol-saline solution containing the […], the […] or PGF2 α was given to the mice once a day during 4 days by intravenous injection and subcutaneous injection at some dose, their breeding were continued to confirm the abortion of the group administrated with the drugs until the partus of the control group administrated with only ethanol saline solution.

[4] = tested on: ICR-JCL mice of the sixth day of pregnancy; test: Test of abortion by intravenous injection, 4 days (Table 3); type: in vivo; settings: i.v. once a day
Experimental: as §2

ICR-JCL pregnant mice [5] = test: Efficiency of abortion, summary in words of the tests in pregnant mice; type: in vivo; settings: for abortion (in words): continuous administration during 4 days; for abortion effect in comparison with PGF2 α: suitable administrations and doses; for efficiency of abortion compared with PGF2 α: intravenous and subcutaneous, 4 days
Experimental: The efficiency of abortion of PGFE,PGFE-4AC and PGFE-3AC are tested as pharmacological effects in suitable administrations and doses by using ICR-JCL pregnant mice.
The continuous administrations were applied to ICR-JCL mice of the sixth day of pregnancy (5 mice as one group) to examine the efficiency of the abortion obtained by the drugs of this invention in comparison with that of PGF2 α. After 0.2 ml of 5% ethanol-saline solution containing the PGFE-3AC, the PGFE-4AC or PGF2 α was given to the mice once a day during 4 days by intravenous injection and subcutaneous injection at some dose, their breeding were continued to confirm the abortion of the group administrated with the drugs until the partus of the control group administrated with only ethanol saline solution.

ICR-JCL female mice = test: Acute toxicity (LD50), intravenous injection; type: in vivo; settings: for survival of mice (acute toxicity) / abnormality observed: 400 mg/kg; for survival of mice (acute toxicity): 10 mice; for LD50 (in words): 7 days, Litchfield-Wilcoxon graph method
Experimental: Acute toxicities (LD50) of PGFE,PGFE-4AC and PGFE-3A are measured by intravenous injections at a dose of 400 mg/kg to ten of ICR-JCL female mice (4 weeks age).
as §1
In the measurement of LD50, 10ICR-JCL female mice (4 week age) were used as one group. 0.2 ml of 50% ethanol-saline solution containing the drug of this invention was intravenously injected to the mice at several doses during 7 days to obtain their value of LD50 by Litchfield-Wilcoxon graph method.

[6] = in accordance with the method of Example 1
[7] = 30γ/mouse, 3 minutes after administration

| Structure (SMILES) | hysterotrimus (rats (uterus); [6]) | binding to the estrogen receptor (estrogen receptor) | abnormal condition in tachycardia, respirogram and electrocardiogram (ICR-JCL pregnant mice [1]) | Efficiency of abortion ([3]; 15 .tau./mouse) [%] | Result of parturition (5 mice in group) ([3]; 15 .tau./mouse) | Efficiency of abortion ([3]; 30 .tau./mouse) [%] | Result of parturition (5 mice in group) ([3]; 30 .tau./mouse) | Efficiency of abortion ([4]; 2.5 .tau./mouse) [%] | Result of parturition (5 mice in group) ([4]; 2.5 .tau./mouse) | Efficiency of abortion ([4]; 5.0 .tau./mouse) [%] | Result of parturition (5 mice in group) ([4]; 5.0 .tau./mouse) | survival of mice (acute toxicity) (ICR-JCL female mice) | abortion (in words) (ICR-JCL pregnant mice [5]; same dose as PGF2 α or less) | abortion effect in comparison with PGF2 α (ICR-JCL pregnant mice [5]) | abnormality observed (ICR-JCL female mice) | LD50 (in words) (ICR-JCL female mice) | tachycardia, respirogram and electrocardiogram compared with control (ICR-JCL pregnant mice [1]; [7]) | efficiency of abortion compared with PGF2 α (ICR-JCL pregnant mice [5]) | further results |
| --- | --- | --- | --- | --- | --- | --- | --- | --- | --- | --- | --- | --- | --- | --- | --- | --- | --- | --- | --- |
| CCCCC[C@H](O)/C=C/[C@@H]1[C@@H](C/C=C\CCCC(=O)OC2CC[C@H]3[C@@H]4CCc5cc(O)ccc5[C@H]4CC[C@]23C)[C@@H](O)C[C@H]1O (stereo partly shown) [Example 2] | cause hysterotrimus | bonded to the estrogen receptor |  |  |  |  |  |  |  |  |  |  |  |  |  |  |  |  |  |
| CCCCC[C@H](O)/C=C/[C@H]1[C@H](O)CC(=O)[C@@H]1C/C=C\CCCC(=O)OCC(=O)OCC(=O)[C@H]1CC[C@H]2[C@@H]3CCC4=CC(=O)CC[C@]4(C)[C@H]3CC[C@]12C [PGE2 P] | cause hysterotrimus | bonded to the estrogen receptor |  |  |  |  |  |  |  |  |  |  |  |  |  |  |  |  |  |
| CCCCC[C@H](O)/C=C/[C@@H]1[C@@H](C/C=C\CCCC(=O)O)[C@@H](O)C[C@H]1O [PGF2 α, 9α,11α,15α-trihydroxy-5(cis)-13(trans)-prostadienoic acid, reference compound] |  |  | abnormal conditions are clearly observed | 0 | 5 | 20 | 4 | 0 | 5 | 0 | 5 |  |  |  |  |  |  |  | tachycardia, respirogram and electrocardiogram compared with control (ICR-JCL pregnant mice [1]; 15γ/mouse, 3 minutes after administration (FIG. 3)): abnormally different from those of the control; cardiac activity (rats (uterus); 5γ, intravenous, rats): cardiac stop was caused; hysterotrimus (rats (uterus); 5γ, intravenous, rats): gaved of the hysterotrimus; Effect of abortion (ICR-JCL pregnant mice [2]; 15 γ/mouse): 0%; Result of parturition (5 mice in group) (ICR-JCL pregnant mice [2]; 15 γ/mouse): 5; Efficiency of abortion ([4]; 15.0 .tau./mouse): 20%; Result of parturition (5 mice in group) ([4]; 15.0 .tau./mouse): 4; abortion (in words) (ICR-JCL pregnant mice [5]; 15α (4.24×10^-8 moles)/mouse): The abortion is incomplete |
| CCCCC[C@H](O)/C=C/[C@@H]1[C@@H](C/C=C\CCCC(=O)OCC(=O)O[C@H]2CC[C@H]3[C@@H]4CCc5cc(O)ccc5[C@H]4CC[C@]23C)[C@@H](O)C[C@H]1O [PGFE, estra-1,3,5(10)-triene-3-hydroxy-17-oxycarbonylmethyl-9α,11α,15α-trihydroxy-5(cis)-13(trans)prostadienoate] |  |  | any abnormal condition is not observed |  |  |  |  |  |  |  |  | All of mice (10) are survived | satisfied results are obtained | greatly superior effect |  |  |  |  | hysterotrimus (rats (uterus); 5 to 50γ (printed "5 L to 50γ"), intravenous, rats): gaved of the hysterotrimus; cardiac activity (rats (uterus); 50γ, intravenous, rats): the cardiac activity was in the normal condition; beginning of hysterotrimus in comparison with PGF2 α (rats (uterus); intravenous, rats): some delay in the beginning of hystrotrimus; side-effect (rats (uterus); up to 50γ, intravenous, rats): no side-effect was found; Effect of abortion (ICR-JCL pregnant mice [2]; 10 γ/mouse): 100%; Result of parturition (5 mice in group) (ICR-JCL pregnant mice [2]; 10 γ/mouse): 0; Effect of abortion (ICR-JCL pregnant mice [2]; 30 γ/mouse): 100%; Result of parturition (5 mice in group) (ICR-JCL pregnant mice [2]; 30 γ/mouse): 0; binding function to estrogen receptor (estrogen receptor; uterus of rabbit, displacement of 3H-estradiol, FIG. 1): has the binding function to estrogen receptor as the same with the estradiol itself |
| CCCCC[C@@H](/C=C/[C@@H]1[C@@H](C/C=C\CCCC(=O)OCC(=O)O[C@H]2CC[C@H]3[C@@H]4CCc5cc(O)ccc5[C@H]4CC[C@]23C)[C@@H](OC(C)=O)C[C@H]1OC(C)=O)OC(C)=O [PGFE-3AC, estra-1,3,5(10)-triene-3-hydroxy-17-oxycarbonylmethyl-9α,11α,15α-triacetoxy-5(cis)-13(trans)-prostadienoate] |  |  | any abnormal condition is not observed | 100 | 0 |  |  | 60 | 2 | 100 | 0 | all of the mice were survived | satisfied results are obtained | greatly superior effect | any abnormality was not observed | too high to be impossible to measure directly | substantially the same with those of the control | remarkably superior | survival of mice (acute toxicity) (ICR-JCL female mice; listed as PGFE-3A): All of mice (10) are survived; Efficiency of abortion ([4]; 1.0 .tau./mouse): 20%; Result of parturition (5 mice in group) ([4]; 1.0 .tau./mouse): 4 |
| CCCCC[C@@H](/C=C/[C@@H]1[C@@H](C/C=C\CCCC(=O)OCC(=O)O[C@H]2CC[C@H]3[C@@H]4CCc5cc(OC(C)=O)ccc5[C@H]4CC[C@]23C)[C@@H](OC(C)=O)C[C@H]1OC(C)=O)OC(C)=O [PGFE-4AC, estra-1,3,5(10)-triene-3-acetoxy-17-oxycarbonylmethyl-9α,11α,15α-triacetoxy-5(cis)-13(trans)prostadienoate] |  |  | any abnormal condition is not observed | 100 | 0 | 100 | 0 | 40 | 3 | 100 | 0 | all of the mice were survived; also recorded: All of mice (10) are survived | satisfied results are obtained | greatly superior effect | any abnormality was not observed | too high to be impossible to measure directly | substantially the same with those of the control | remarkably superior |  |
